Data on 9 compounds can be found in patent US20190311703A1, “ACOUSTIC TRAUMA SYSTEM FOR LARVAL FISH” (WASHINGTON STATE UNIVERSITY, priority 2018, published 2019).

Entries after “also recorded” stand apart in the source; their conditions may differ. Like-named read-outs stand apart in the source and are kept apart here. Where a SMILES comes first, the peptide text is derived from it. The star is where a group is joined. Cbz = O=C(OCc1ccccc1)*; CH2F = FC*

The subject of experiment [1] is lateral line hair cells. The experiment is described as follows: Cavitation (acoustic trauma)-induced lateral line hair cell damage in larval zebrafish, hair cell survival assessment. It counts as in vivo. Conditions: for protection from cavitation-induced hair cell damage (hair cell survival score vs DMSO control): blinded mini-screen of select redox library compounds, FIG. 12B. On the procedure: At 5 days post-fertilization (dpf), fish were fed a light dusting of GEMMA micro 75 while in petri dishes. All noise exposure experiments were conducted at 6 dpf. Larval zebrafish were placed into wells A2-A5 and D2-D5 of a modified 24-well plate (3 fish per well) containing fish water and suspended atop 22 cm of water within the container 2 (stainless-steel canister) with the bottom of the 1 cm of the well plate 5 submerged (as generally shown in FIG. 1). While the well plate is disclosed often with the bottom of the plate being submerged, it is also to be understood that the entire well plate may be submerged without departing from the scope of the invention. Fish were exposed to cavitation for periods ranging from 20 to 120 minutes.
Immediately following cavitation fish were transferred to a 6-well plate 5 (6 fish per well) and kept in the fish facility on a 14 h light/10 h dark cycle for up to 5 post-exposure days. Each post-exposure morning (9-10 am) 50% of fish water was exchanged with fresh fish water and fish were lightly dusted with GEMMA food. Each post-exposure day evening (5-6 pm) fish were transferred to a fresh 6-well plate with completely fresh fish water.
Survival of lateral line hair cells was assessed by vital dye labeling in live fish and direct hair cells counts in live and fixed animals. The vital dye 2-(4-(dimethylamino)styryl)-N-ethylpyridinium iodide (DASPEI) is a marker of mitochondria membrane potential and stains lateral line hair cells. Fish were incubated in 0.005% DASPEI for 15 min, then rinsed twice with fish water and anesthetized with 0.001% MS-222. Using a Leica M165FC fluorescence dissection scope, 10 anterior neuromasts (IO1, IO2, IO3, IO4, M2, MI1, MI2, O2, SO1, and SO2) per fish were assessed based on fluorescent intensity. An intensity score of 2 signifies bright neuromast fluorescence, an intermediate score of 1 represents dim DASPEI labeling, while a 0 neuromast score equates to no neuromast fluorescence at a given neuromast's stereotyped position. The scores from 10 neuromasts per fish were summed such that each fish receives a score between 0 (no neuromast fluorescence) and 20 (full complement of hair cells in all 10 neuromasts).
All inhibitors (to test roles of cell death (including apoptosis, pyroptosis and necroptosis) and inflammation, were added to 6-well plates immediately after cavitation-exposed fish were removed from the device. Inhibitors were refreshed during the same intervals as fish water (twice daily) until the end of the desired exposure window. To test the role of protein synthesis, fish were pulse treated immediately after acoustic trauma for 4 h with the protein synthesis inhibitor cycloheximide (C7698; Sigma Aldrich). In separate experiments, acoustic trauma-exposed fish were continuously treated with either the pan caspase inhibitor Z-VAD-FMK ([…]; Sigma Aldrich) or the antioxidant D-methionine (F7111; UBPBio) to assess the contribution of caspase activation and ROS overproduction, respectively, in the acoustically stimulated lateral line. A small blinded screen was also conducted of select compounds from a larger redox library (BML-2835-0100; Enzo Life Sciences). Compounds chosen had either known protective effects in mammalian models of NIHL (as proof-of concept) or had not been previously tested against NIHL (to identify new protective molecules).

In experiment [2] the test system is cochlear hair cells. Conditions: guinea pigs; cited from earlier work.
The subject of experiment [3] is cochlear hair cells. The settings on record: mice; cited from earlier work.
The conditions of experiment [4]: cited from earlier work.
The subject of experiment [5] is hair cells. The settings on record: intracochlear perfusion, guinea pigs; cited from earlier work.

As for `CSCC[C@@H](N)C(=O)O` [D-methionine], the “protection from cavitation-induced hair cell damage (hair cell survival)” value (shortened to “protection … (hair cell survival)”) in experiment [1] (100 μM, FIG. 12A) was “protected lateral line hair cells from cavitation damage”; in experiment [1] (500 μM, FIG. 12A), “protected lateral line hair cells from cavitation damage”; in experiment [1] (72 hour treatment, concentration not stated at place, FIG. 12A), “protects lateral line hair cells from cavitation”; in experiment [1] (72 hour treatment, concentration not stated at place, FIG. 12A, listed as D-Methionine), “robustly protects lateral line hair cells from cavitation”. The “protection of cochlear hair cells from acoustic trauma” value in experiment [2] and in experiment [3] was “protects cochlear hair cells” each time.
For the compound `CC(=O)N[C@@H](CS)C(=O)O` [N-acetylcysteine], in experiment [4], the “prevention of NIHL, clinical trial outcome” value is “failed to meet clinical endpoints”.
As for `COC(=O)C[C@H](NC(=O)[C@H](C)NC(=O)[C@@H](NC(=O)OCc1ccccc1)C(C)C)C(=O)CF` [Z-VAD, Z-VAD-FMK] (Cbz-Val-Ala-Asp(OMe)-CH2F), the “hair cell loss following blast noise trauma” value in experiment [5] is on record as “reduces hair cell loss”. Also, the “protection … (hair cell survival)” value in experiment [1] (1 μM, treatment for entire 72-hour post-exposure window, FIG. 11B) is reported as “significantly reduced cavitation-induced hair cell damage”; in experiment [1] (72-h treatment starting immediately after acoustic stimulation, concentration not stated, FIG. 11B), “reduced cavitation-induced lateral line hair cell damage; also recorded: robustly protects hair cells from damage”.
For the compound `O=c1cc(-c2ccccc2)oc2cc(O)c(O)c(O)c12` [baicalein], the “protection from cavitation-induced hair cell damage (hair cell survival score vs DMSO control)” value in experiment [1] is “significantly protected lateral line hair cells from cavitation-induced hair cell damage”.
Same read-out and setting: as for `CCCCS(=N)(=O)CCC(N)C(=O)O` (centres unmarked) [buthionine sulfoximine], the entry is “did not confer protection”.
In the case of `C[C@@H]1C[C@@H]([C@H](O)CC2CC(=O)NC(=O)C2)C(=O)[C@@H](C)C1` [cycloheximide], the “protection … (hair cell survival)” value in experiment [1] (4 h pulse treatment immediately after acoustic stimulation, assessed 72 h post-exposure, FIG. 11A) is reported as “prevented hair cell loss; also recorded: reduces hair cell damage”; in experiment [1] (4 h pulse treatment immediately after acoustic stimulation, assessed 72 h post-exposure, FIG. 11A, listed as Cycloheximide) it was “protected lateral line hair cells from cavitation in a dose-dependent manner”.
As to `CC1=C(C)C(=O)C(CC[C@](C)(O)CCC[C@H](C)CCC[C@H](C)CCCC(C)C)=C(C)C1=O` [d-α-tocopherylquinone], the “protection from cavitation-induced hair cell damage (hair cell survival score vs DMSO control)” value in experiment [1] is “significantly protected lateral line hair cells from cavitation-induced hair cell damage”.
Still for that read-out and setting: the result for `CCOC(=O)/C=C/c1ccc(O)c(OC)c1` [ferulic acid ethylester] reads “significantly protected lateral line hair cells from cavitation-induced hair cell damage”; that for `N[C@@H](CCC(=O)N[C@@H](CS)C(=O)NCC(=O)O)C(=O)O` [glutathione], “significantly protected lateral line hair cells from cavitation-induced hair cell damage”.
